Data from US6174875A, “Benzoquinoid ansamycins for the treatment of cardiac arrest and stroke” (priority 1999, dated 2001).

Legend:
cultured neurons = details: cited from earlier work
[1] = tested on: myogenic H9c2 cells and cardiomyocytes; details: pretreatment; cited from earlier work
[2] = tested on: heat shock proteins in rat cardiomyocytes; details: cited from earlier work; for overexpression of heat shock proteins in cardiomyocytes: pretreatment
hsp70 in fibroblasts = details: cited from earlier work
HT22 cells [3] = test: MTT viability assay of glutamate-treated HT22 cells; type: cell-based, mouse
Procedure: (§1) HT22 cells were seeded on 60 mm tissue culture dishes at 300,000 cells per dish and grown overnight. Cells were then incubated in the presence of 5 mM glutamate for 20 hours. […] In order to provide a more accurate assessment of glutamate-induced oxidative toxicity, the ability of HT22 cells to metabolize 3-(4,5-[…]-2-yl)-2,5-diphenyl tetrazolium bromide (MTT) was assayed. The reduction of this dye by viable cells can easily be detected spectrophotometrically as described by Mosman (1983) J. Immunol. Methods 65:55 with reduced HT22 cell viability directly correlated with decreased metabolism of MTT (Shubert et al. (1992) Proc. Natl. Acad. Sci. USA 89:8264). HT22 cells were seeded on 96-well plates at 5,000 cells per well and grown for 12 hours. Cells were then treated with 2 mM, 5 mM or 10 mM concentrations of glutamate. […] After a total incubation period of 20 hours, cell viability was measured using an MTT assay as described by Li et al. (1997) Neuron 19:453. Briefly, 10 μl of MTT solution (5 mg/ml) was added to each well and cells incubated for an additional 4 hours. 100 μl of solubilization solution (50% dimethylformamide and 20% SDS, pH 4.8) was added and left on the cells 5 overnight, after which light absorption at 570 nm was measured. Values (% Viability) represent the average of quadruplicate (FIG. 1) or triplicate (FIG. 2) determinations±S.D. Similar results were obtained in a replicate experiment. Cell viability was expressed relative to control cells treated with GA or Herb alone.

[4] = tested on: heat shock proteins in myogenic H9c2 cells; details: cited from earlier work; for overexpression of heat shock proteins in myogenic H9c2 cells: pretreatment
in vivo = details: mouse, iv, 60 mg/kg
Procedure: 17-allylaminogeldanamycin (17-AAG) (60 mg/kg) was administered to CD2F1 mice by intravenous (iv) injection. Brain levels of 17-AAG were determined at various time points after administration.

raf-1 in rat brain = test: Western blot of raf-1 in rat hippocampus after intracranial ventricular injection; type: in vivo; details: 20 μg geldanamycin icv, 12 or 24 hours (FIGS. 5A, 5B)
Procedure: (§2) Geldanamycin was delivered to rat brain by intracranial ventricular (icv) injection as follows. Rats were stereotaxically fitted with 4 mm×22 gauge guide cannulae directed at the lateral ventricle (AP-2.0, ML+2.0). […] The injector was removed and replaced with a stylet. At 12 or 24 hours after injection, hippocampi were isolated from which whole cell extracts were prepared and subjected to Western blot analysis to visualize raf- 1 and actin, or hsp70. Negative and positive control protein samples for hsp70 were prepared from untreated or heat shocked HT22 cells. Western blot analysis is depicted in FIGS. 5A and 5B in which the (-) and (+) lanes refer to the negative and positive control samples.

hsp70 in HT22 cells = test: Western blot of inducible hsp70 expression in HT22 cells; type: cell-based, mouse
Procedure: (§3) Cells were harvested and lysed by sonication in 0.25 M Tris-HCl, pH 7.5 and lysates clarified by centrifugation at 14,000 rpm for 10 minutes at 4 ° C. Equivalent amounts of lysate protein (5 μg) were used for Western blot analysis as described by Xiao et al. (1997) Mol. Endocrinol. 11: 1365. The inducible form of the 70 kDa heat shock protein, hsp70, was uniquely detected using the SPA-810 monoclonal antibody (StressGen). GA induction of hsp70 was evident within 3 hours of GA treatment, was maximal upon 9 hours of GA treatment, and persisted for at least 12 hours in the presence of GA.

[5] = tested on: Male Sprague-Dawley rats (asphyxial cardiac arrest); type: in vivo, rat
Text: In rats, asphyxia produces circulatory arrest that can be reversed by mechanical ventilation and external chest compression (Katz et al. (1995) J. Cereb. Blood Flow Metab. 15:1032). […] Meaningful behavioral scores that predictable detect neurological deficits which closely mimic the types of deficits observed in patients that recover from cardiac arrest have been developed. Animal protocols were approved by the Institutional Animal Care and Use Committee of the University of Pittsburgh. Male Sprague-Dawley rats weighing 318±17 gm (Harlan, Indianapolis, Ind.) were anesthetized with 0.8% halothane in oxygen, endotracheally intubated using a 14 gauge angiocath, and mechanically ventilated using a Harvard rodent ventilator (0.9 cc/kg, 40 respirations/min). Blood pressure and arterial blood gases are monitored via a femoral arterial catheter (PE-50 tubing, IntraMedic), and drugs administered via a femoral venous catheter (PE-50). Tympanic temperature was maintained at 36.9±0.2° C. by manipulating an overhead 100 W lamp. After chemical paralysis with 2 mg/kg vecuronium and reducing the fraction of inspired oxygen to 0.21 (room air) mechanical ventilation was discontinued at end-expiration. Cardiac arrest (mean arterial pressure <10 mmHg) reliably occurred within 180 seconds. […]

hsp70 in rat brain = test: Western blot of hsp70 in rat hippocampus after intracranial ventricular injection; type: in vivo; details: 20 μg geldanamycin icv, 12 or 24 hours (FIGS. 5A, 5B)
Procedure: as §2

[6] = tested on: glutathione levels in HT22 cells; test: Cellular glutathione (GSH) levels in HT22 cells (monochlorobimane fluorescence); type: cell-based, mouse; details: 0.1 μg/ml GA, 5 mM glutamate, 2-8 hours (FIG. 3)
Procedure: Cellular glutathione (GSH) levels were measured in HT22 cells as described previously by Kane (1993) Science 262:1274. Briefly, HT22 cells were seeded onto 96-well plates at 20,000 cells per well and grown overnight. […] Monochlorobimane was added to 40 μM and following an additional 30 minutes of incubation, fluorescence at 460 nm in response to excitation at 395 mn was measured using a Perkin Elmer fluorescence plate reader. Values represent the average of triplicate experiments±S.D.

HT22 cells [7] = test: Glutamate-induced cytotoxicity in HT22 cells by phase contrast/light microscopy and trypan blue staining; type: cell-based, mouse
Procedure: as §1, with “overnight.” for “overnight. Cells were then incubated in the presence of 5 mM glutamate for 20 hours.”

hsp90 in HT22 cells = test: Western blot of steady state hsp90 levels in HT22 cells; type: cell-based, mouse; details: 0.1 μg/ml GA
Procedure: as §3

HT22 cells [8] = test: Internucleosomal DNA cleavage (apoptosis) in HT22 cells; type: cell-based, mouse
Procedure: HT22 cells were treated with 5 mM glutamate (Glu) for 20 hours. […] Controls included HT22 cells not treated with Glu or GA and cells treated with GA alone.

[9] = tested on: hsp90-associated signaling molecules; details: other cultured cells; cited from earlier work

In the case of vitamin E, the “protection of cultured neurons from oxidative toxicity” value (cultured neurons) is given as “protect cultured neurons from this form of toxicity”.

For `CC(=O)Oc1ccccc1C(=O)O` [aspirin], the “protection of cultured neurons from oxidative toxicity” value (cultured neurons) is listed as “protect cultured neurons from this form of toxicity”.

For `COC1C=CC=C(C)C(=O)NC2=CC(=O)C=C(C2=O)C(OC)C(C)CC(OC)C(OC)C(C)C=C(C)C1OC(N)=O` (stereo not drawn) [herbimycin A], the “protection against simulated ischemia” value [1] is given as “conferred protection against simulated ischemia”, the “induction of hsp70 expression in rat cardiomyocytes” value [2] is given as “induce hsp70 expression” and the “overexpression of heat shock proteins in cardiomyocytes” value [2] is given as “overexpression of heat shock proteins”. For the same compound, the “induction of hsp70 expression in fibroblasts” value (hsp70 in fibroblasts) was “induce hsp70 expression”, the “protection from glutamate-induced oxidative toxicity (MTT viability)” value (HT22 cells [3]; 0.5 μg/ml herbimycin A (FIG. 2)) was “protected HT22 cells from the glutamate-induced oxidative toxicity” and the “induction of hsp70 expression in a myogenic cell line” value [4] was “induce hsp70 expression”. For the same compound, the “overexpression of heat shock proteins in myogenic H9c2 cells” value [4] was “overexpression of heat shock proteins”.

With `C=CCNC1=C2CC(C)CC(OC)C(O)C(C)C=C(C)C(OC(N)=O)C(OC)C=CC=C(C)C(=O)NC(=CC1=O)C2=O` (stereo not drawn) [17-AAG, 17-allylaminogeldanamycin] the concentration at 24 h (in vivo) was 100 ng/g.

In the case of `COC1=C2C[C@@H](C)C[C@H](OC)[C@H](O)[C@@H](C)/C=C(\C)[C@H](OC(N)=O)[C@@H](OC)/C=C\C=C(/C)C(=O)NC(=CC1=O)C2=O` [geldanamycin], the “expression of raf-1 proto-oncogene in rat brain” value (raf-1 in rat brain) is given as “decreased expression of the raf-1 proto-oncogene”, the “protection against simulated ischemia” value [1] is given as “conferred protection against simulated ischemia” and the “induction of hsp70 expression in rat cardiomyocytes” value [2] is given as “induce hsp70 expression”. The “overexpression of heat shock proteins in cardiomyocytes” value [2] was “overexpression of heat shock proteins”, the “hsp70 induction by GA in the presence of glutamate” value (hsp70 in HT22 cells; 0.1 μg/ml GA + 5 mM glutamate) was “still able to induce hsp70” and the “time GA-induced hsp70 levels are maintained in the presence of glutamate” value (hsp70 in HT22 cells; 0.1 μg/ml GA + 5 mM glutamate) was “up to 12 hours”. For the same compound, the “persistence of hsp70 induction in the presence of GA” value (hsp70 in HT22 cells; 0.1 μg/ml GA, HT22 cells) was “at least 12 hours”, the “time at which GA induction of hsp70 was evident” value (hsp70 in HT22 cells; 0.1 μg/ml GA, HT22 cells) was ≤ 3 h and the “time of maximal GA induction of hsp70” value (hsp70 in HT22 cells; 0.1 μg/ml GA, HT22 cells) was 9 h. For the same compound, the “induction of hsp70 protein levels at higher doses of GA” value (hsp70 in HT22 cells; doses above 0.1 μg/ml, HT22 cells) was “not significantly enhanced at higher doses”, the “induction of hsp70 compared with heat shock” value (hsp70 in HT22 cells; vs 60 minute 42° C. heat shock, 0.1 μg/ml GA) was “as effective as a 60 minute 42 °C heat shock” and the “induction of hsp70 expression in fibroblasts” value (hsp70 in fibroblasts) was “induce hsp70 expression”. For the same compound, the “protection when GA is given following glutamate treatment” value (HT22 cells [3]; 0.1 μg/ml GA added after glutamate (FIG. 1)) was “retained its capacity to protect HT22 cells from oxidative stress”, the “protection against glutamate cytotoxicity (MTT viability)” value (HT22 cells [3]; 0.1 μg/ml GA, 10 mM glutamate, 20 h) was “less effective at this higher dose of glutamate” and the “protection against glutamate cytotoxicity (MTT viability)” value (HT22 cells [3]; 0.1 μg/ml GA, 2 and 5 mM glutamate, 20 h (FIG. 1)) was “effective protection”. For the same compound, the “time after glutamate exposure at which protection by GA was still apparent” value (HT22 cells [3]; 0.1 μg/ml GA, 2 or 5 mM glutamate) was 6 h, the “neurological deficit scores vs vehicle” value ([5]; GA 1.0 mg/kg iv after return of spontaneous circulation, n=5, scored at 24, 48, 72 hours, Kruskal-Wallace Chi-square=6.54, p<0.05 (FIG. 4)) was “lower in rats treated with GA (n=5) than in rats treated with vehicle” and the “physiological variables during the resuscitation phase vs vehicle” value ([5]; GA 1.0 mg/kg iv, rats) was “did not differ between groups”. The “expression of hsp70 in rat brain” value (hsp70 in rat brain) was “increased expression of hsp70”, the “recovery of glutathione levels” value [6] was “did not lead to recovery of glutathione levels” and the “protection from glutamate-induced oxidative toxicity (phase contrast)” value (HT22 cells [7]; 0.1 μg/ml GA, 5 mM glutamate, GA added at same time or 1, 2 or 6 hours after glutamate) was “led to protection from glutamate-induced oxidative toxicity”. For the same compound, the “HT22 cell growth rate, GA alone” value (HT22 cells [7]; GA alone) was “appeared to reduce HT22 cell growth rate”, the “cell death, GA alone” value (HT22 cells [7]; GA alone, assessed after 24 hours) was “did not lead to cell death” and the “steady state levels of hsp90” value (hsp90 in HT22 cells) was “not affected”. For the same compound, the “internucleosomal DNA cleavage, GA alone” value (HT22 cells [8]; 0.1 μg/ml GA alone) was “not subjected to this type of characteristic genomic DNA cleavage”, the “block of glutamate-induced internucleosomal DNA cleavage” value (HT22 cells [8]; 0.1 μg/ml GA, 5 mM glutamate) was “able to block glutamate-induced internucleosomal DNA cleavage” and the “degradation of hsp90-associated signaling molecules” value [9] was “selective degradation of hsp90-associated signaling molecules”. For the same compound, the “induction of hsp70 expression in a myogenic cell line” value [4] was “induce hsp70 expression” and the “overexpression of heat shock proteins in myogenic H9c2 cells” value [4] was “overexpression of heat shock proteins”.
